Data reported in ChEMBL document CHEMBL2176989, “Design, synthesis, and pharmacological evaluation of piperidin-4-yl amino aryl sulfonamides: novel, potent, selective, orally active, and brain penetrant 5-HT₆ receptor antagonists” (J Med Chem, 2012).

Key:
[1] = target: 5-hydroxytryptamine receptor 6 (Homo sapiens) (UniProt P50406); test: Antagonist activity at human recombinant 5HT6 receptor expressed in CHO cells assessed as inhibition of 5HT-induced luciferase activity after 4 hrs by reporter gene assay; type: functional, cell-based
5-hydroxytryptamine receptor 6 (Homo sapiens), sequence (P50406 whole entry): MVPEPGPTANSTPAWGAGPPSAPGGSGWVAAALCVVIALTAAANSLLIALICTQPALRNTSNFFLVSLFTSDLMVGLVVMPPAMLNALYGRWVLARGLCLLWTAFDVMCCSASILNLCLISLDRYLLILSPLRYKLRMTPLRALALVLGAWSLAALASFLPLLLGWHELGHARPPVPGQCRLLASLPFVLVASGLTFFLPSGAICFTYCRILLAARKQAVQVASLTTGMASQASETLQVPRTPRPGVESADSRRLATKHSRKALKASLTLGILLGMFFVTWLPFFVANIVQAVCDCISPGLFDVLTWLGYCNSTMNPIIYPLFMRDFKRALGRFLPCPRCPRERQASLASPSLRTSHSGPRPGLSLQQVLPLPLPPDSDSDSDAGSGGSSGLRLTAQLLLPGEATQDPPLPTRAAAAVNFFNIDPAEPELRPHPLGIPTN

[2] = target: 5-hydroxytryptamine receptor 6 (Homo sapiens) (UniProt P50406); test: Antagonist activity at human recombinant 5HT6 receptor expressed in CHO cells assessed as inhibition of 5HT-induced luciferase activity after 4 hrs by reporter gene assay relative to control; type: functional, cell-based
[3] = Ratio of drug uptake in brain to plasma in Wistar rat at 10 mg/kg, po after 1 hr; type: ADME, organism-based; parameters: dose 10 mg/kg, route oral; details: read-out: BPR
[4] = target: Voltage-gated inwardly rectifying potassium channel KCNH2 (Homo sapiens, UniProt Q12809); test: Displacement of [3H]astemizole from human ERG by microbeta scintillation counting
Voltage-gated inwardly rectifying potassium channel KCNH2, sequence (Q12809 whole entry): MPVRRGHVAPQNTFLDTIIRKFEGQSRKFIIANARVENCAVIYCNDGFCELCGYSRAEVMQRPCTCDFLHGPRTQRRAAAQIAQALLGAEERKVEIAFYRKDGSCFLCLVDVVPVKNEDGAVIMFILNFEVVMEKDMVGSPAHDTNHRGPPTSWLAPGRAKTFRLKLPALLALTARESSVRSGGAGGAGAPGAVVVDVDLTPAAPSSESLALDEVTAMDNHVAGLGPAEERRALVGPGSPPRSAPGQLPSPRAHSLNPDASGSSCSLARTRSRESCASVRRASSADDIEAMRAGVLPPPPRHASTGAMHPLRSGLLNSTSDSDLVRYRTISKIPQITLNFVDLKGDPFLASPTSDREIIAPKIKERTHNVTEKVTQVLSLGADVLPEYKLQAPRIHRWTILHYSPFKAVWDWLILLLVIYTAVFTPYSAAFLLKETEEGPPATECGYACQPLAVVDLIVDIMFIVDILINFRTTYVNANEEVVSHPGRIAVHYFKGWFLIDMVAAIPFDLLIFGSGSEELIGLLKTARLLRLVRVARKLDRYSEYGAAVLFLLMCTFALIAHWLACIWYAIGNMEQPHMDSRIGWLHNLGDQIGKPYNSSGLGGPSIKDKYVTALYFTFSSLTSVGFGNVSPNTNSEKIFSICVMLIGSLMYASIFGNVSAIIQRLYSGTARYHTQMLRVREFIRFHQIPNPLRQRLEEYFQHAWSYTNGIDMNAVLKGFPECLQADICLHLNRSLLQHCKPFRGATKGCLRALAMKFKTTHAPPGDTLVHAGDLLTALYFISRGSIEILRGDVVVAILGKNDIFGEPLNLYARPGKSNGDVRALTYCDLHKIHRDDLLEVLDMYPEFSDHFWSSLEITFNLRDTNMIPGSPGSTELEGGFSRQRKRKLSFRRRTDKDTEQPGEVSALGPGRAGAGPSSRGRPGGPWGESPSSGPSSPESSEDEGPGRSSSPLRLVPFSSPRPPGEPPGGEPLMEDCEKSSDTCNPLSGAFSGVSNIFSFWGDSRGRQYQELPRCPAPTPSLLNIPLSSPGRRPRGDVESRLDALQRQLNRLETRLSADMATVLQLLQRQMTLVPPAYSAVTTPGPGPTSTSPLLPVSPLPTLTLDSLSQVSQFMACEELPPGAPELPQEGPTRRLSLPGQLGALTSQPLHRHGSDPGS

[5] = Drug metabolism in human liver microsomes at 2.5 uM at 30 mins by LC-MS/MS analysis; type: ADME, Microsome; details: read-out: Drug metabolism
[6] = Cmax in fasted Wistar rat at 10 mg/kg, po; type: ADME, organism-based; parameters: dose 10 mg/kg, route oral; details: in vivo
[7] = Tmax in fasted Wistar rat at 10 mg/kg, po; type: ADME, organism-based; parameters: dose 10 mg/kg, route oral; details: in vivo
[8] = Drug metabolism in Wistar rat liver microsomes at 2.5 uM at 30 mins by LC-MS/MS analysis; type: ADME, Microsome; details: read-out: Drug metabolism
[9] = Apparent volume of distribution in Wistar rat at 5 mg/kg, iv; type: ADME, organism-based; parameters: dose 5 mg/kg, route intravenous; details: in vivo, read-out: Vz
[10] = AUC (0 to 24 hrs) in fasted Wistar rat at 10 mg/kg, po; type: ADME, organism-based; parameters: time < 24 hr, dose 10 mg/kg, route oral; details: plasma
[11] = AUC (0 to 24 hrs) in Wistar rat at 5 mg/kg, iv; type: ADME, organism-based; parameters: time < 24 hr, dose 5 mg/kg, route intravenous; details: plasma
Cytochrome P450 2D6 = Cytochrome P450 2D6 (Homo sapiens, UniProt P10635); test: Inhibition of CYP2D6 in human liver microsomes using dextromethorphan as substrate after 10 mins by LC-MS/MS analysis in presence of NADPH
Cytochrome P450 2D6, sequence (P10635 whole entry): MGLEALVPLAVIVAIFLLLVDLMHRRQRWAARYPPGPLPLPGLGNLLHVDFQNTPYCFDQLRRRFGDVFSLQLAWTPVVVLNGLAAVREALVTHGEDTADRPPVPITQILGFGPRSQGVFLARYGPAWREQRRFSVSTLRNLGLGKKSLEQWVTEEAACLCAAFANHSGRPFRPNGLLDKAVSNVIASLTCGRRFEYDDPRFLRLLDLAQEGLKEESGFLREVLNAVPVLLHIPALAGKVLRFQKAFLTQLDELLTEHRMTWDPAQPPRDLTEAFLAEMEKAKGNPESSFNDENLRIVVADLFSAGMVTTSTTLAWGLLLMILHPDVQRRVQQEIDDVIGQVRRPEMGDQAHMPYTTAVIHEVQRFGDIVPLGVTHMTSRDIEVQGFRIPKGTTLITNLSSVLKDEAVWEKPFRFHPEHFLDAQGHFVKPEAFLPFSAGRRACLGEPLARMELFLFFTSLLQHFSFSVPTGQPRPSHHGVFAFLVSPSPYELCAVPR

[12] = Clearance in Wistar rat at 5 mg/kg, iv; type: ADME, organism-based; parameters: dose 5 mg/kg, route intravenous; details: in vivo
[13] = Half life in Wistar rat at 5 mg/kg, iv; type: ADME, organism-based; parameters: dose 5 mg/kg, route intravenous; details: in vivo
[14] = Oral bioavailability in fasted Wistar rat at 10 mg/kg; type: ADME, organism-based; details: in vivo

Structure (SMILES) | Kb [1] [nM] | Imax [2] [%] | other results
COc1ccc(S(=O)(=O)n2cc(C)c3cc(Cl)cnc32)cc1NC1CCNCC1 | 0.1 | 97 | 
COc1ccc(S(=O)(=O)N2CCCc3ccccc32)cc1NC1CCN(C)CC1 | 0.06 | 100 | Kp at 1 h [3]: 0.02
CCc1ccc(S(=O)(=O)n2ccc3ccccc32)cc1NC1CCN(C)CC1 | 1.39 | 99 | 
COc1ccc2ccn(S(=O)(=O)c3ccc(C)c(NC4CCN(C)CC4)c3)c2c1 | 0.25 | 98 | 
COc1ccc2c(ccn2S(=O)(=O)c2ccc(F)c(NC3CCN(C)CC3)c2)c1 | 11.7 | 95 | 
CCc1ccc(S(=O)(=O)n2ccc3cc(F)ccc32)cc1NC1CCN(C)CC1 | 18.3 | 95 | 
COc1cnc2c(ccn2S(=O)(=O)c2ccc(OC)c(NC3CCN(C)CC3)c2)c1 | 12 | 90 | 
COc1ccc(S(=O)(=O)n2ccc3cc(Cl)cnc32)cc1NC1CCN(C)CC1 | 0.15 | 98 | 
COc1ccc(S(=O)(=O)n2cc(C)c3cc(F)ccc32)cc1NC1CCN(C)CC1 | 0.52 | 100 | Ki [4]: 950 nM
COc1ccc(S(=O)(=O)n2ccc3cc(Cl)ccc32)cc1NC1CCN(C)CC1 | 4.37 | 98 | 
COc1ccc(S(=O)(=O)N2CCOc3ccc(F)cc32)cc1NC1CCN(C)CC1 | 0.1 | 100 | 
COc1ccc(S(=O)(=O)n2cc(C)c3cc(Cl)ncc32)cc1NC1CCN(C)CC1 | 1.3 | 85 | 
COc1ccc(S(=O)(=O)N2CCOc3ccc(C)cc32)cc1NC1CCN(C)CC1 | 0.1 | 100 | 
Cc1nn(S(=O)(=O)c2ccc(Cl)c(NC3CCN(C)CC3)c2)c2ccc(Cl)cc12 | 28.6 | 39 | 
COc1ccc2c(ccn2S(=O)(=O)c2ccc(C)c(NC3CCN(C)CC3)c2)c1 | 51.3 | 70 | 
COc1ccc(S(=O)(=O)n2ccc3cc(Br)ccc32)cc1NC1CCN(C)CC1 | 1.91 | 97 | 
COc1ccc(S(=O)(=O)n2ccc3ccc(F)cc32)cc1NC1CCN(C)CC1 | 0.2 | 100 | 
Cc1ccc(S(=O)(=O)n2ccc3cc(F)ccc32)cc1NC1CCN(C)CC1 | 7.5 | 97 | 
COc1ccc(S(=O)(=O)n2ccc3cc(F)ccc32)cc1NC1CCN(C)CC1 | 1.8 | 100 | 
COc1ccc2c(ccn2S(=O)(=O)c2ccc(OC)c(NC3CCN(C)CC3)c2)c1 | 3.8 | 96 | 
COc1ccc(S(=O)(=O)n2ccc3ccc(F)cc32)cc1NC1CCNCC1 | 0.3 | 100 | 
COc1ccc2c(ccn2S(=O)(=O)c2cccc(NC3CCN(C)CC3)c2)c1 | 12.5 | 96 | 
CN1CCC(Nc2cccc(S(=O)(=O)n3ccc4cc(Br)ccc43)c2)CC1 | 10.3 | 98 | 
COc1ccc(S(=O)(=O)n2ccc3ccc(Cl)cc32)cc1NC1CCN(C)CC1 | 0.14 | 100 | 
COc1ccc(S(=O)(=O)n2cc(C)c3nc(Cl)ccc32)cc1NC1CCN(C)CC1 | 1.7 | 98 | 
CN1CCC(Nc2cccc(S(=O)(=O)n3ccc4ccccc43)c2)CC1 | 3.19 | 92 | 

Structure (SMILES) | Kb [1] [nM] | Imax [2] [%] | other results
COc1ccc(S(=O)(=O)n2ccc3cc(F)ccc32)cc1NC1CCNCC1 | 0.3 | 100 | 
COc1ccc(S(=O)(=O)N2CCc3ccccc3C2)cc1NC1CCN(C)CC1 | 0.07 | 98 | Kp at 1 h [3]: 0.24
CN1CCC(Nc2cccc(S(=O)(=O)n3ccc4ccc(Cl)cc43)c2)CC1 | 2.39 | 98 | 
CN1CCC(Nc2cc(S(=O)(=O)n3ccc4ccccc43)ccc2F)CC1 | 1.6 | 100 | 
COc1ccc(S(=O)(=O)n2ccc3cc(OC(C)C)ccc32)cc1NC1CCN(C)CC1 | 2.2 | 100 | 
COc1ccc(S(=O)(=O)N2CCOc3ccc(C(F)(F)F)cc32)cc1NC1CCN(C)CC1 | 0.1 | 100 | 
Cc1ccc(S(=O)(=O)n2cc(C)c3cc(Cl)cnc32)cc1NC1CCN(C)CC1 | 3.9 | 97 | 
COc1ccc(S(=O)(=O)n2ccc3cc(Br)ccc32)cc1NC1CCNCC1 | 3.2 | 99 | 
COc1ccc2ccn(S(=O)(=O)c3ccc(Cl)c(NC4CCN(C)CC4)c3)c2c1 | 3.3 | 100 | 
COc1ccc2ccn(S(=O)(=O)c3ccc(OC)c(NC4CCN(C)CC4)c3)c2c1.O=P(O)(O)O | 0.1 | 100 | Kp at 1 h [3]: 0.6
Cc1cn(S(=O)(=O)c2ccc(F)c(NC3CCN(C)CC3)c2)c2ccccc12 | 0.52 | 100 | 
COc1ccc2c(C)cn(S(=O)(=O)c3ccc(OC)c(NC4CCN(C)CC4)c3)c2c1 | 0.1 | 100 | 
CCc1ccc(S(=O)(=O)n2ccc3c(Cl)cccc32)cc1NC1CCN(C)CC1 | 12.8 | 90 | 
COc1ccc(S(=O)(=O)N2CC(C)(C)Oc3ccc(F)cc32)cc1NC1CCN(C)CC1 | 0.1 | 100 | 
COc1ccc(S(=O)(=O)N2CCOc3ccccc32)cc1NC1CCN(C)CC1 | 0.2 | 100 | Ki [4]: > 10000 nM
COc1ccc(S(=O)(=O)n2nc(C)c3cc(Cl)ccc32)cc1NC1CCN(C)CC1.O=C(O)C(O)C(O)C(=O)O | 0.6 | 100 | metabolised at 0.5 h, 2.5 µM [5]: 60%; Cmax [6]: 57 ng/mL; Tmax [7]: 2 h; metabolised at 0.5 h, 2.5 µM [8]: 69%; Vd [9]: 16 L/kg; AUC(0-t) at 24 h [10]: 300 ng·h/mL; AUC(0-t) at 24 h [11]: 600 ng·h/mL; IC50 (Cytochrome P450 2D6): 14500 nM; clearance [12]: 143 mL/min/kg; half-life [13]: 1.7 h; bioavailability [14]: 25%; Kp at 1 h [3]: 0.5
COc1ccc2ccn(S(=O)(=O)c3cccc(NC4CCN(C)CC4)c3)c2c1 | 1.2 | 100 | 
COc1ccc(S(=O)(=O)n2cc(C)c3ccc(Cl)cc32)cc1NC1CCN(C)CC1 | 0.1 | 100 | 
CN1CCC(Nc2cc(S(=O)(=O)n3ccc4cc(Br)ccc43)ccc2F)CC1 | 16 | 94 | 
Cc1nn(S(=O)(=O)c2ccc(F)c(NC3CCN(C)CC3)c2)c2ccc(Cl)cc12 | 10.1 | 59 | 
COc1ccc(S(=O)(=O)n2ccc3ccccc32)cc1NC1CCN(C)CC1 | 1.22 | 100 | 
CCc1ccc(S(=O)(=O)n2ccc3ccc(Cl)cc32)cc1NC1CCN(C)CC1 | 5.3 | 98 | 
COc1ccc(S(=O)(=O)N2CCOc3ccc(Cl)cc32)cc1NC1CCN(C)CC1 | 0.1 | 100 | metabolised at 0.5 h, 2.5 µM [5]: 70%; Cmax [6]: 197 ng/mL; Tmax [7]: 0.5 h; metabolised at 0.5 h, 2.5 µM [8]: 85%; Vd [9]: 2.5 L/kg; AUC(0-t) at 24 h [10]: 384 ng·h/mL; AUC(0-t) at 24 h [11]: 1450 ng·h/mL; clearance [12]: 58 mL/min/kg; half-life [13]: 0.7 h; bioavailability [14]: 12%; Kp at 1 h [3]: 0.6
COc1ccc(S(=O)(=O)N2CCCc3ccccc32)cc1NC1CCNCC1 | 0.1 | 100 | 
Cc1cn(S(=O)(=O)c2cccc(NC3CCN(C)CC3)c2)c2ncc(Cl)cc12 | 4 | 99 | 
COc1cnc2c(c1)c(C)cn2S(=O)(=O)c1ccc(OC)c(NC2CCN(C)CC2)c1 | 2.3 | 95 | 
